In patent US5190873A, “Hybrid tryptophan aporepressor containing ligand binding sites” (California Institute of Biological Research, priority 1991, dated 1993):
Where no end group is shown, it is not given here.

These substances were tested on U251MG human glioma cell attachment to TrpR-TN5 (E. coli Trp aporepressor hybrid with SRRGDMS at D/E transition) (assay: Cell attachment assay on TrpR-TN5-coated wells, peptide competition). Conditions: peptide at 1 mg/ml; U251 cells.
Assay type: cell-based
Experimental: Recombinant proteins were assessed for cell binding activity in a microtiter plate cell attachment assay. The assay is a simple and rapid means of assessing cell binding to the recombinant protein. In addition the specificity of the interaction is explored with specific inhibitor peptides, recombinant proteins and matrix proteins. Finally, the assay is used to screen a variety of cell lines to determine the range of cell types capable of interacting with the recombinant protein.
The assay used was a modification of one widely used in the field. See Bourdon et al., J. Cell Biol., 108:1149-1155 (1989). […] Nonspecific sites on the well were blocked with BSA. Human tumor cells, U251MG-human glioma or MG63-human sarcoma having the receptor which binds the SRRGDMS receptor binding site with or without inhibitor were added and allowed to adhere for 30 to 90 minutes at 37° C. Following the maintenance period, non-adherent cells were washed out and relative numbers of adherent cells were determined. The assay can detect binding interactions in the absence of extensive cell spreading.
In the cell attachment assay, the attached cells stained with Di-I a vital fluorescent dye which intercalates in cell membranes. The advantages of this form of cell tagging are that cells can be rapidly labeled, the label remains cell bound, it is not radioactive, and it is easily detected in a fluorescence plate reader.
Specificity of cell attachment was then determined in competition assays of cell attachment using SRRGDMS or GRGDSP peptides as competitive inhibitors of recombinant protein cell attachment. In the presence of 1 mg/ml SRRGDMS peptide, the specific attachment of U251MG cells to either fusion protein was inhibited as shown in FIG. 3.

Row | Substance | inhibition of cell attachment to TrpR-TN5
1 | GRGDSP (GRGDSP-NH2) | inhibited
2 | MGSRSRD | did not inhibit
3 | SRRGDMS (SRRGDMS-NH2) | inhibited
